{"source": "paper PMC7203245", "about": "“Lacosamide intake during pregnancy increases the incidence of foetal malformations and symptoms associated with schizophrenia in the offspring of mice” (Scientific Reports, 2020)", "experiment": "LCM and related compounds (RC) in embryos and mothers' serum by high-resolution MS/MSe", "assay_type": "in vivo, mice", "details": "for presence in the serum of mothers: dams given 10-120 mg/kg LCM", "procedure": "Samples were extracted as described previously[25] with slight modifications. Briefly, embryos were rinsed with cold saline and ultrapure water, and their wet-weight was determined. […] The mixture was vortexed vigorously for 3 min and centrifuged at 13,000 g for 5 min. The supernatant was transferred to a new Eppendorf tube and evaporated to dryness in a stream of nitrogen gas. The residue was reconstituted with 50 µL of LC-MS Ultrapure water, vortexed for 20 s and centrifuged at 13,000 g for 5 min. The supernatant was transferred to a conic micro insert to be injected onto the UHPLC system.\nMS spectra data were collected between m/z 50 and 1000, and MS/MS spectra were registered between 50-300 Da. […] The MS^e procedure was used to identify metabolites in positive ionization mode. UPLC–QTOF-MS^e detection collects data using two scan functions, providing fragment ion information without precursor ion selection. A characteristic m/z in the low energy function allows identification through the fragment ions obtained with the high collision energy function. Two functions were acquired at different collision energies: a low energy function obtained at 2 eV; and a high-energy function obtained using a collision energy ramp ranging from 15 to 30 eV and spectra data collected between m/z 50 and 800. The data station operating the software was a MassLynx version 4.1, while metabolites were identified by means of Metabolynx XS (Waters, Micromass, Manchester, UK).\nIn this work the following routes were selected for these searches: phase I metabolites Reduction (+H2), Hydroxylation (O), Hydration (+H2O), 2xHydroxylation (+O2), Deacetylation (-C2H2O) and Demethylation (-CH2); and phase II metabolites Acetylation (+C2H2O) and Glucuronide (+C6H8O6)."}
{"smiles": "NCc1ccccc1", "note": "[RC 1]", "values": [{"measurement": "Embryos in which the LCM compound is present", "setting": "Maternal Dose 10 mg/kg", "value": "Embryo1 and 2"}, {"measurement": "presence in the serum of mothers", "value": "detected in the serum of all mothers"}, {"measurement": "number of embryos in which detected", "setting": "embryo from a dam treated with 10 mg/kg LCM", "value": 1}]}
{"smiles": "CC(=O)N[C@H](CO)C(=O)NCc1ccccc1", "note": "[RC 2, O-Demethyl LCM]", "values": [{"measurement": "Embryos in which the LCM compound is present", "setting": "Maternal Dose 10 mg/kg", "value": "Embryo1 and 2"}, {"measurement": "Embryos in which the LCM compound is present", "setting": "Maternal Dose 80 mg/kg", "value": "Embryo 5 and 6"}, {"measurement": "presence in the serum of mothers", "value": "detected in the serum of all mothers"}, {"measurement": "number of embryos in which detected", "setting": "embryos from dams treated with 10 mg/kg and 80 mg/kg LCM", "value": 2}]}
{"smiles": "COC[C@@H](N)C(=O)NCc1ccccc1", "note": "[deacetylacosamide]", "values": [{"measurement": "presence in samples from mothers", "setting": "mothers who received 10 mg/kg LCM", "value": "contained"}]}
{"smiles": "CC(=O)N[C@H](CO)C(=O)NCc1ccccc1", "note": "[desmethylacosamide]", "values": [{"measurement": "presence in samples from dams", "setting": "dams that received 120 mg/kg LCM", "value": "some samples from the corresponding dams contained"}]}
